{"source": "patent US6140354A", "about": "“N-substituted aminotetralins as ligands for the neuropeptide Y Y5 receptor useful in the treatment of obesity and other disorders” (Ortho-McNeil Pharmaceutical, Inc., priority 1999, dated 2000)"}
{"biological_target": "T1, human neuropeptide Y5 receptor (Homo sapiens, UniProt Q15761)", "T1 construct": "expressed in transfected cells", "T1 sequence (Q15761 1-445)": "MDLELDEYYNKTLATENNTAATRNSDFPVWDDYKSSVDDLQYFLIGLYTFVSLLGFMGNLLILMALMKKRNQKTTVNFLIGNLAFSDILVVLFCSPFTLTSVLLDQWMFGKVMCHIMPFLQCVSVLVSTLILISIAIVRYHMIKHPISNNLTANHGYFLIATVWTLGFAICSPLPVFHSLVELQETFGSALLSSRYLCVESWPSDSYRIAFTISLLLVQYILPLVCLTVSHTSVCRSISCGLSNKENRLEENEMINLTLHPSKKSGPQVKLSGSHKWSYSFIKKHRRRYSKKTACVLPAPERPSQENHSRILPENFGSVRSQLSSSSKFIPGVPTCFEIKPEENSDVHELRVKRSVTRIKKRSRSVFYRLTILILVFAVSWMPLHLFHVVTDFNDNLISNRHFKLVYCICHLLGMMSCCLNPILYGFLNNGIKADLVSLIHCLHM", "experiment": "NPY5 HTS Centrifugation Assay: competition with 125I-PYY for binding to NPY5-transfected HEK293 cell membranes", "conditions": "80 pM 125I-PYY, 1 hr room temperature, read-out: % Inh @ 3 uM (% Inhibition of ^125 I-PYY Binding)", "experimental": "The compounds described in this invention were evaluated for binding to the human neuropeptide Y5 receptor.\nThe human NPY5 receptor cDNA (Genbank Accession number U66275) was inserted into the vector pClneo (Invitrogen) and transfected into human embryonic kidney cells (HEK-293) via Calcium phosphate method (Cullen 1987). Stably transfected cells were selected with G-418 (600 ug/mL). Stably transfected cells served as the source for the membranes for the NPY5 receptor binding assay.\nNPY5-transfected HEK293 cells were grown to confluence in 150 cm^2 culture dishes. Cells were washed once with phosphate-buffered saline (Gibco Cat#14040-133). Cells were then incubated in phosphate-buffered saline without Calcium and without Magnesium, supplemented with 2 mM EDTA. Cells were incubated for 10 minutes at room temperature and the cells were collected by repetitive pipeting. Cells were formed into pellets and then frozen at -80 until needed. Frozen pellets were homogenized with a polytron at full speed for 12 seconds in a homogenization buffer (20 mM Tris HCl, 5 mM EDTA, pH 7.4). Homogenates were centrifuged for 5 minutes at 4C at 200 g. Supernatants were transferred to corex tubes and centrifuged for 25 minutes at 28,000 g. Pellets were re-suspended in Binding (20 mM HEPES, 10 mM NaCl, 0.22 mM KH2 PO4, 1.3 mM CaCl2, 0.8 mM MgSO4, pH 7.4). Membranes were kept on ice until use.\nA competition binding assay, known to those skilled in the art, was used in which aminotetralins (I) compete with ^125 I-PYY for binding to cell membranes. In simple terms, the less ^125 I-PYY bound to the membranes implies that a compound is a good inhibitor (competitor). Bound ^125 I-PYY is determined by centrifugation of membranes, aspirating supernatant, washing away residual ^125 I-PYY and subsequently counting the bound sample in a g-counter.\nCompounds to be tested were prepared as 10× stocks in binding buffer and added first to assay tubes (RIA vials, Sarstedt). Twenty (20) μL of each 10× compound stock is pipeted into vials and 80 μL of ^125 I-PYY (NEN catalog number NEX240), which has been diluted to a concentration of 200 pM in 0.25% BSA in binding buffer, is added to the compound tubes (final concentration of ^125 I-PYY is 80 pM). To each tube is added 100 μL of membranes and the mixture is agitated by pipeting 2 times. Samples are incubated for 1 hr at room temperature. Aluminum cast plates (Sarstedt) containing the vials are then centrifuged 10 minutes at 3200 rpm in a Sorvall RT6000. Supernatant is then aspirated. To each vial 400 μL PBS is added and this is then aspirated again. Vials are then put in carrier polypropylene 12×75 tube and counted in gamma counter (Packard). Non-specific binding is determined in the presence of 300 nM NPY. Percent inhibition of ^125 I-PYY binding is calculated by subtracting non-specific binding from the test samples (compound (I)), taking these counts and dividing by total binding, and multiplying by 100. Inhibitory concentration values (IC50) of compounds that show appreciable inhibition of ^125 I-PYY binding are calculated by obtaining percent inhibition of ^125 I-PYY binding values at different concentrations of the test compound, and using a graphing program such as GraphPad Prism (San Diego, Calif.) to calculate the concentration of test compound that inhibits fifty-percent of ^125 I-PYY binding (Table 4). These operations are known to those skilled in the art.", "units": {"inhibition at 3 µM": "%"}}
{"smiles": "COc1ccc2c(c1)C(Cc1ccccc1)C(NC[C@H]1CC[C@H](CNS(=O)(=O)c3ccc4ccccc4c3)CC1)CC2", "note": "(relative stereo) [Compound 80]", "inhibition at 3 µM": 75}
{"smiles": "COc1ccc2c(c1)CC[C@H](NC[C@H]1CC[C@H](CNS(=O)(=O)c3ccccc3)CC1)[C@@H]2Cc1ccccc1", "note": "(relative stereo) [Compound 52]", "inhibition at 3 µM": 99}
{"smiles": "COc1ccc2c(c1)CC[C@H](NCCCCCNS(=O)(=O)c1ccc3ccccc3c1)[C@@H]2Cc1ccccc1", "note": "(relative stereo) [Compound 11, rac-[1α,2α(trans)]-N-[[[[[1,2,3,4-tetrahydro-6-methoxy-1-(phenylmethyl)-2-naphthalenyl]amino]-5-pentyl]2-naphthalenesulfonamide]", "inhibition at 3 µM": 95}
{"smiles": "O=S(=O)(NCCCCCN[C@H]1CCc2ccccc2[C@H]1Cc1ccccc1)c1ccc2ccccc2c1", "note": "(relative stereo) [Compound 46]", "inhibition at 3 µM": 89}
{"smiles": "COc1ccc(CC2c3ccc(OC)cc3CCC2NC[C@H]2CC[C@H](CNS(=O)(=O)c3ccccc3)CC2)cc1", "note": "(some centres unmarked) [Compound 86]", "inhibition at 3 µM": 25}
{"smiles": "COc1ccc2c(c1)CC[C@H](NCc1ccc(CNS(=O)(=O)c3ccc4ccccc4c3)cc1)[C@@H]2Cc1ccccc1", "note": "(relative stereo) [Compound 49]", "inhibition at 3 µM": 60}
{"smiles": "O=S(=O)(NC[C@H]1CC[C@H](CNC2CCc3cc(F)ccc3C2Cc2ccccc2)CC1)c1ccccc1Br", "note": "(relative stereo) [Compound 74]", "inhibition at 3 µM": 105}
{"smiles": "C=CC[C@@H]1c2ccc(OC)cc2CC[C@@H]1NC[C@H]1CC[C@H](CNS(=O)(=O)c2ccccc2)CC1", "note": "(relative stereo) [Compound 39, rac-[1α,2α(trans)]-N-[[[[[1,2,3,4-tetrahydro-6-methoxy-1-(1-propene-3-yl)-2-naphthalenyl]amino]methyl]4-cyclohexyl]methyl] benzenesulfonamide]", "inhibition at 3 µM": 102}
{"smiles": "O=S(=O)(NC[C@H]1CC[C@H](CNC2CCc3cc(F)ccc3C2Cc2ccccc2)CC1)c1ccccc1", "note": "(relative stereo) [Compound 103]", "inhibition at 3 µM": 98}
{"smiles": "COc1cccc(CC2c3ccc(OC)cc3CCC2NC[C@H]2CC[C@H](CNS(=O)(=O)c3ccccc3)CC2)c1", "note": "(relative stereo) [Compound 83]", "inhibition at 3 µM": 92}
{"smiles": "COc1ccc2c(c1)CCC(NC[C@H]1CC[C@H](CNS(=O)(=O)c3ccc4ccccc4c3)CC1)C2Cc1cccc(C(F)(F)F)c1", "note": "(some centres unmarked) [Compound 94]", "inhibition at 3 µM": 45}
{"smiles": "O=S(=O)(NC[C@H]1CC[C@H](CNC2CCc3ccc(Cl)cc3C2Cc2ccccc2)CC1)c1ccccc1", "note": "(some centres unmarked) [Compound 104]", "inhibition at 3 µM": 97}
{"smiles": "COc1ccc2c(c1)CCC(NC[C@H]1CC[C@H](CNS(=O)(=O)c3ccccc3)CC1)C2Cc1ccccc1Cl", "note": "(relative stereo) [Compound 95]", "inhibition at 3 µM": 84}
{"smiles": "O=S(=O)(NC[C@H]1CC[C@H](CNC2CCc3cc(F)ccc3C2Cc2ccccc2)CC1)c1c(Cl)cccc1Cl", "note": "(some centres unmarked) [Compound 77]", "inhibition at 3 µM": 102}
{"smiles": "COc1ccc2c(c1)CCC(NC[C@H]1CC[C@H](CNS(=O)(=O)c3cccc(Br)c3)CC1)C2Cc1ccccc1", "note": "(some centres unmarked) [Compound 69]", "inhibition at 3 µM": 93}
{"smiles": "O=S(=O)(NC[C@H]1CC[C@H](CNC2CCc3cccc(Cl)c3C2Cc2ccccc2)CC1)c1ccccc1", "note": "(relative stereo) [Compound 106]", "inhibition at 3 µM": 104}
{"smiles": "COc1ccc2c(c1)CCC(NC[C@H]1CC[C@H](CNS(=O)(=O)c3ccccc3)CC1)C2Cc1ccc(Cl)cc1", "note": "(relative stereo) [Compound 97]", "inhibition at 3 µM": 90}
{"smiles": "COc1ccc2c(c1)CCC(NC[C@H]1CC[C@H](CNS(=O)(=O)c3ccc(S(C)(=O)=O)cc3)CC1)C2Cc1ccccc1", "note": "(relative stereo) [Compound 55]", "inhibition at 3 µM": 90}
{"smiles": "COc1ccc2c(c1)CCC(NC[C@H]1CC[C@H](CNS(=O)(=O)c3ccc4ccccc4c3)CC1)C2Cc1cccc(Cl)c1", "note": "(some centres unmarked) [Compound 93]", "inhibition at 3 µM": 60}
{"smiles": "COc1ccc2c(c1)CCC(NC[C@H]1CC[C@H](CNS(=O)(=O)c3ccccc3[N+](=O)[O-])CC1)C2Cc1c(F)cccc1F", "note": "(relative stereo) [Compound 90]", "inhibition at 3 µM": 97}
